{"source": "patent US10730815B2", "about": "“Method of producing purified stilbene compounds” (MORINAGA & CO., LTD., priority 2014, dated 2020)", "assay": "Precipitation of various stilbene compounds by γ-CD: concentration in supernatant (HPLC)", "type": "physicochemical", "experimental": "γ-CD solutions of six different concentrations (42.78, 85.56, 106.95, 128.33, 171.11, 213.89 mg/mL) were prepared.\nThe mixed solutions were stirred under light shielding conditions at 25° C. for 24 hours. Subsequently, they were subjected to centrifugation at 15,000 rpm at 25° C. for 5 minutes to collect the supernatants. These supernatants were further subjected to centrifugation using the same conditions to obtain another batch of supernatants.\nResveratrol (denoted by “Res” in the figure), rhapontigenin (denoted by “Rha” in the figure), and isorhapontigenin (denoted by “Isorha” in the figure) were used as the stilbene compounds to prepare respective solutions of the stilbene compounds. To each solution, γ-CD was added. Precipitation of these stilbene compounds by γ-CD and the relation between the concentration of γ-CD and the precipitation of the stilbene compounds were examined. Procedures for the preparation of the solutions and the measurement using HPLC were similar to those described in the above Example 1(3).", "data": [{"smiles": "COc1cc(/C=C/c2cc(O)cc(O)c2)ccc1O", "note": "[Isorha, isorhapontigenin]", "values": [{"measurement": "Concentration of Isorha in liquid", "setting": "γ-CD 0 mg/mL final", "result": 190, "unit": "µg/mL"}, {"measurement": "Concentration of Isorha in liquid", "setting": "γ-CD 12.8 mg/mL final", "result": 0, "unit": "µg/mL"}, {"measurement": "Concentration of Isorha in liquid", "setting": "γ-CD 25.7 mg/mL final", "result": 0, "unit": "µg/mL"}, {"measurement": "Concentration of Isorha in liquid", "setting": "γ-CD 32.1 mg/mL final", "result": 0, "unit": "µg/mL"}, {"measurement": "Concentration of Isorha in liquid", "setting": "γ-CD 38.5 mg/mL final", "result": 0, "unit": "µg/mL"}, {"measurement": "Concentration of Isorha in liquid", "setting": "γ-CD 51.3 mg/mL final", "result": 0, "unit": "µg/mL"}, {"measurement": "Concentration of Isorha in liquid", "setting": "γ-CD 64.2 mg/mL final", "result": 0, "unit": "µg/mL"}]}, {"smiles": "Oc1ccc(/C=C/c2cc(O)cc(O)c2)cc1", "note": "[Res, Resveratrol]", "values": [{"measurement": "Concentration of Res in liquid", "setting": "γ-CD 0 mg/mL final", "result": 28, "unit": "µg/mL"}, {"measurement": "Concentration of Res in liquid", "setting": "γ-CD 12.8 mg/mL final", "result": 20, "unit": "µg/mL"}, {"measurement": "Concentration of Res in liquid", "setting": "γ-CD 25.7 mg/mL final", "result": 12, "unit": "µg/mL"}, {"measurement": "Concentration of Res in liquid", "setting": "γ-CD 32.1 mg/mL final", "result": 10, "unit": "µg/mL"}, {"measurement": "Concentration of Res in liquid", "setting": "γ-CD 38.5 mg/mL final", "result": 8.2, "unit": "µg/mL"}, {"measurement": "Concentration of Res in liquid", "setting": "γ-CD 51.3 mg/mL final", "result": 5.8, "unit": "µg/mL"}, {"measurement": "Concentration of Res in liquid", "setting": "γ-CD 64.2 mg/mL final", "result": 3.7, "unit": "µg/mL"}]}, {"smiles": "COc1ccc(/C=C/c2cc(O)cc(O)c2)cc1O", "note": "[Rha, rhapontigenin]", "values": [{"measurement": "Concentration of Rha in liquid", "setting": "γ-CD 0 mg/mL final", "result": 97, "unit": "µg/mL"}, {"measurement": "Concentration of Rha in liquid", "setting": "γ-CD 12.8 mg/mL final", "result": 60, "unit": "µg/mL"}, {"measurement": "Concentration of Rha in liquid", "setting": "γ-CD 25.7 mg/mL final", "result": 20, "unit": "µg/mL"}, {"measurement": "Concentration of Rha in liquid", "setting": "γ-CD 32.1 mg/mL final", "result": 17, "unit": "µg/mL"}, {"measurement": "Concentration of Rha in liquid", "setting": "γ-CD 38.5 mg/mL final", "result": 13, "unit": "µg/mL"}, {"measurement": "Concentration of Rha in liquid", "setting": "γ-CD 51.3 mg/mL final", "result": "≤10", "unit": "µg/mL"}, {"measurement": "Concentration of Rha in liquid", "setting": "γ-CD 64.2 mg/mL final", "result": "≤10", "unit": "µg/mL"}]}]}
